# Laboratory results from patent EP2698384A1, “Detection of synthetic cannabinoids” (priority 2012, dated 2014).
# How the values were obtained:
# Type in all cases: binding, sheep
# Conditions in all cases: Cross-reactants at 100 ng/ml; 1000ng/ml; single level of cross reactants
# Antibody to Immunogen V = tested on: Antibody to Immunogen V
# How it was run: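 Plates coated with anti-Immunogen V IgG; RCS-8 standards (0–80 ng/ml in TBST) compete with hapten-HRP conjugate 1 h at 25°C, TMB readout at 450 nm. IC50 from 4-parameter fit as concentration at half the zero-standard OD; cross-reactivity from single-level cross-reactant versus calibration curve.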
# [1] = tested on: Antibody to Immunogen III
# How it was run: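 Plates were coated with IgG from antiserum to Immunogen III, and JWH-250 standards (0–40 ng/ml) competed with hapten-HRP conjugate for 1 h at 25°C. Detection used TMB with A450. IC50 is the concentration giving half the 0 ng/ml OD on a 4-parameter fit, and cross-reactivity was taken from calibration curves using a single level of each cross-reactant.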
# Antibody to Immunogen VI = tested on: Antibody to Immunogen VI
# How it was run: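 Plates coated with IgG from anti-Immunogen VI antiserum; RCS-4 standards (0–20 ng/ml) compete with hapten-HRP conjugate for 1 h at 25°C. TMB read at 450 nm, 4-parameter fit; IC50 at half the zero-standard OD. Cross-reactivity from single-level cross-reactant solutions against calibration curves.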
Compound,%B/B0 (Antibody to Immunogen V),%B/B0 [1],%B/B0 (Antibody to Immunogen VI)
O=C(c1cccc2ccccc12)c1cn(CCN2CCOCC2)c2cccc(O)c12 [JWH-200 4-hydroxyindole metabolite],74.79%,95.93%,90.44%
O=C(O)c1c[nH]c2ccccc12 [Indole-3-carboxylic Acid],64.69%,91.19%,95.41%
"CC(C)(C)Cn1cc(C(=O)c2cccc3ccccc23)c2ccccc21 [JWH-018 N-(2,2-dimethylpropyl) isomer]",67.14%,95.58%,78.92%
CCCCCc1cc(O)c2c(c1)OC(C)(C)[C@@H]1CCC(C)=C[C@@H]21 [Delta 9 THC],65.28%,91.21%,94.84%
CN1CCCCC1Cn1cc(C(=O)c2cc([N+](=O)[O-])ccc2I)c2ccccc21 (stereo not drawn) [AM-1241],71.68%,102.11%,99.43%
COc1ccc(C(=O)c2cn(CCCCCO)c3ccccc23)cc1 [RCS-4 N-(5-hydroxypentyl) metabolite],63.69%,72.34%,3.76%
"CC(C)C(C)n1cc(C(=O)c2cccc3ccccc23)c2ccccc21 (single isomer, unassigned) [JWH 018 N-(1,2-dimethylpropyl) isomer]",74.41%,90.17%,83.71%
CCCCCn1cc(C(=O)Cc2cccc(OC)c2)c2ccccc21 [JWH-302],32.66%,19.97%,71.16%
CCCCCn1cc(C(=O)c2ccc(C)c3ccccc23)c2ccccc21 [JWH-122],69.63%,69.90%,75.29%
